Results from ChEMBL document CHEMBL1150868, “Verbenachalcone, a novel dimeric dihydrochalcone with potentiating activity on nerve growth factor-action from Verbena littoralis” (J Nat Prod, 2001).
Active and inactive are the calls of the source. The rule behind the calls is not given here.

Legend:
PC-12 [1] = experiment: Induction of neurite outgrowth in rat PC12D cells at 1 to 30 uM in absence of nerve growth factor by microscopy; assay type: functional, cell-based
PC-12 [2] = experiment: Enhancement of nerve growth factor-stimulated neurite outgrowth in rat PC12D cells at > 10 uM by microscopy; assay type: functional, cell-based

For `COc1cc(CCC(=O)c2ccc(O)cc2O)ccc1Oc1cc(CCC(=O)c2ccc(O)cc2O)ccc1O`, the Activity (PC-12 [1]) was “inactive” and the Activity (PC-12 [2]) was “Active”.
